{"source": "patent US7846891B2", "about": "“Self-assembling peptides for regeneration and repair of neural tissue” (Massachusetts Institute of Technology, priority 2003, dated 2010)", "key": {"[1]": {"tested_on": "brachium of the superior colliculus (brain wound)", "experiment": "Histology and CT-B axon tracing after transection of the brachium of the superior colliculus in adult hamsters", "type": "in vivo, Syrian hamster", "conditions": "BSC transection; for axon growth through the lesion site (CT-B tracing) / tissue reconnection / repair at the lesion site (histology): 10 ul of 1% SAP, section 2 months after injection", "protocol": "(§1) Axon tracing method. Four days before the animals were sacrificed they were anesthetized with intraperitoneal injection of Valium (50 mg/kg) and Nembutal (10 mg/kg). […]. This was accomplished with the aid of glass micropipette (tip diameter ˜10 μm) attached to a General Valve Pico Spritzer as previously described. The subjects were then returned to their cages, under a heat lamp, and monitored until they recovered.\n(§2) Histology. The animals were sacrificed with an overdose of anesthesia 4 days after the intraocular injection of CT-B and were then perfused transcardially with PBS buffer (pH 7.4) followed by 2% paraformaldehyde in 0.1M phosphate buffer (pH 7.4). The brains and eyes were removed and postfixed at 4° C. until they sank. The tissue was cut on a cryostat in 30 micron coronal sections. These sections were mounted directly on gelatin-coated slides. The mounted sections were first air dried, then washed with PBS (pH 7.4) three times at 10 min intervals, and then preblocked in PBS (pH 7.4) containing 2% Triton X-100, 2% normal rabbit serum, and 2.5% bovine serum albumin for 30 min at room temperature. The slides were then incubated with goat anti-cholaragenoid (List Biological Lab, Inc.) (1:8000 dilution)+2% Triton X-100, 2% normal rabbit serum, and 2.5% bovine serum albumin for 48 hours at room temperature. Slides were then washed in PBS (pH 7.4) for three rounds of 10 min each. Sections were incubated with fluorescent donkey anti-IgG antibody Alexa-488 (secondary antibody from Molecular Probes, Inc.) (1:200 dilution) for 1 her 30 min at room temperature in a light protected chamber. Slides were then washed in PBS (pH 7.4) 4 to 5 times at 5 min intervals. The slides were then cover-slipped with Dabco. The slides were visualized through a fluorescent microscope and pictures were taken with a Kodak DCS 620 digital camera.\nAt the time of surgery, animals were treated by injection of 10 ul of 1% SAP RAD16-I into the brain wound. Animals were allowed to recover from surgery and maintained under standard laboratory conditions.\n. Axon tracing and histology were performed as described above to allow visualization of the lesion site and assessment of axon regrowth. FIG. 10 is a parasagittal section of the dorsal midbrain of a hamster. Rostral is left and caudual is right. The section is from an 8 month old hamster and was taken 2 months following infliction of the lesion. The bright yellow in the middle of the picture that extends from the lower left to the upper right is in the middle of the lesion site. Retinal projections show as gray. Note the axons extending through the center of the cut. […] In addition, the tissue has reconnected at the lesion site in a similar manner to that observed in the younger animals."}, "[2]": {"experiment": "Self-assembly of SAP on addition to CSF in vitro", "type": "physicochemical", "conditions": "data not shown"}, "[3]": {"tested_on": "brachium of the superior colliculus (brain wound)", "experiment": "Visually elicited orienting (head turning) test after transection of the brachium of the superior colliculus in adult hamsters", "type": "in vivo, Syrian hamster", "conditions": "BSC transected at 2 months of age, 10 ul of 1% SAP at surgery, testing from day 44-46, listed as SAP", "protocol": "Thus functional recovery of severed axons can be assessed by evaluating visually elicited head turning at various times after infliction of a lesion that severs the brachium, such as those described in Example 1.\nTo determine the extent of return of vision the animals are tested for visually elicited orienting responses. The identity of the animal is unknown to the investigator during testing periods. Before behavioral testing, the animals are habituated to the testing environment. Videotaping of the response is accomplished by the use of an overhead Sony digital video (DV) recorder. Some of the trials are simultaneously taped from the side with another Sony DV recorder. Later the video is analyzed frame-by-frame on a 21-inch monitor. All of the cameras are time synchronized. The first type of analysis is to determine if the trial is valid or invalid. Once a trial is judged as valid it is analyzed frame by frame, which enables us to plot the position of the stimulus with respect to the initial head location. The angle of the head at the beginning of the turning movement is set to zero. […]\nThe y axis represents the number of times the animal turned toward the stimulus during testing, expressed as a percentage of the number of times the stimulus was presented on the side that had received the lesion and SAP treatment. […]"}, "[4]": {"tested_on": "optic tract within the superior colliculus (brain wound)", "experiment": "Optic tract transection (knife wound in superior colliculus) in P2 hamster pups; histology and CT-B axon tracing", "type": "in vivo, Syrian hamster", "protocol": "Animals and surgery. Syrian hamster pups at two days of age (P2) were anesthetized with whole-body cooling. […] At surgery, 10 animals were treated by injection into the brain wound of 10 microliters of 1% SAP RADA16-I (n-RADARADARADARADA-c; SEQ ID NO: 1) prepared by dissolving peptide in sterile water. The overlying scalp was then closed with tissue glue (cyanoacrylic). The pups were returned to the cage, placed under a heat lamp, and monitored until they recovered. After recovery the hamster pups were returned to their mother. Control animals with the same lesion included 3 with isotonic saline injection (10 microliters), and 27 earlier cases with knife cuts and no injection.\nas §1\nas §2, with “camera. […]” for “camera.”"}}, "note": "Entries after “also recorded” stand apart in the source; their conditions may differ."}
{"substance": "n-RADARADARADARADA-c [RADA16-I]", "values": [{"measurement": "re-innervation of the SC by the severed retinofugal axons", "setting": "[1]; 10 ul of 1% SAP at surgery", "value": "partial re-innervation of the SC"}, {"measurement": "axon growth through the lesion site (CT-B tracing)", "setting": "[1]; listed as RAD16-I", "value": "axons have extended their processes to the superior colliculus"}, {"measurement": "tissue reconnection / repair at the lesion site (histology)", "setting": "[1]; listed as RAD16-I", "value": "All of the tissue has repaired itself"}, {"measurement": "axon growth through the lesion site (CT-B tracing)", "setting": "[1]; listed as SAP", "value": "axons growing through the site where the cut transected the brachium of the superior colliculus"}, {"measurement": "tissue reconnection / repair at the lesion site (histology)", "setting": "[1]; listed as SAP", "value": "neural tissue reconnected across the site of the lesion"}, {"measurement": "self-assembly in CSF", "setting": "[2]", "value": "resulted in self-assembly to form a peptide scaffold"}, {"measurement": "behavioral recovery (response to visual stimulus)", "setting": "[3]", "value": "significant behavioral recovery; also recorded: return of functional vision in six animals"}, {"measurement": "axon regrowth across the lesion (cholera-toxin labeling)", "setting": "[4]; 1 month hamster, lesion at P2 injected with 10 microliters of 1% SAP", "value": "axons have extended from a location proximal to the lesion to a distal location"}, {"measurement": "scar at lesion site (bright-field image)", "setting": "[4]; 2 months after lesion and injection of SAP", "value": "minimal nature of the scar"}, {"measurement": "re-innervation of the caudal SC by the severed retinofugal axons", "setting": "[4]; lesion at P2, 10 ul of 1% SAP", "value": "partial re-innervation of the caudal SC"}, {"measurement": "tissue reconnection across the lesion (histology)", "setting": "[4]; lesion at P2, 10 ul of 1% SAP injected into brain wound, survival 1, 3, 6, 30 or 60 days, vs saline and no-injection controls (χ^2=34.8, df (1), p<<0.001)", "value": "the tissue appears to have reconnected across the lesion at all survival times"}]}
